The source of these data is ChEMBL document CHEMBL1671744 (Antimicrob Agents Chemother, 2010).

Values after ≈ are worked out from the molar mass of the structure shown. Where a SMILES comes first, the peptide text is derived from it. [ ]: non-standard residue; d: D form. The star is where a group is joined. Leu(5,5,5,5',5',5'-F6) = N[C@@H](CC(C(F)(F)F)C(F)(F)F)C(=O)O; Lauroyl = CCCCCCCCCCCC(=O)* A value given as a limit tells only on which side of the number the result lay.

The subject of series [1] is Escherichia coli. The series can be described thus: Antimicrobial activity against Escherichia coli. The format is functional.
Series [2] can be described thus: Toxicity in RBC assessed as hemolysis at 25 uM. It is filed as cell-based. Conditions: erythrocyte.
Series [3] relates to Aspergillus fumigatus. As to the kind of experiment: Antimicrobial activity against Aspergillus fumigatus. It is filed as functional.
The test system of series [4] is Aspergillus fumigatus. The series can be described thus: Antimicrobial activity against Aspergillus fumigatus at pH 5.5. The format is functional.
Series [5] in a line: Toxicity in RBC assessed as hemolysis at 50 uM at pH 7.4. The settings on record: erythrocyte, pH 7.4, 50 µM. The format is cell-based.
Series [6] has as its system Escherichia coli. As to the kind of experiment: Antimicrobial activity against Escherichia coli at pH 5.5. The format is functional.
The subject of series [7] is Aspergillus fumigatus. As to the kind of experiment: Antimicrobial activity against Aspergillus fumigatus at pH 7.4. The format is functional.
Series [8] has as its system Escherichia coli. The series can be described thus: Antimicrobial activity against Escherichia coli at pH 7.4. It is filed as functional.
Series [9] relates to Staphylococcus epidermidis. The series can be described thus: Antimicrobial activity against methicillin-resistant Staphylococcus epidermidis. The format is functional.
Series [10] concerns Staphylococcus aureus. The series can be described thus: Antimicrobial activity against methicillin-resistant Staphylococcus aureus. The format is functional.
For series [11], the system named is Bacillus subtilis. As to the kind of experiment: Antimicrobial activity against Bacillus subtilis. It is filed as functional.
The nature of series [12]: in vitro. Conditions: red blood cells.

By MIC is commonly meant the lowest concentration found to suppress growth. On to `CCCCCCCCCCCC(=O)N[C@H](CC(C)C)C(=O)N[C@@H](CCCCN)C(=O)N[C@@H](CCCCN)C(=O)N[C@H](CC(C)C)C(=O)N[C@H](CC(C)C)C(=O)N[C@H](CC(C)C)C(=O)N[C@@H](CCCCN)C(=O)N[C@@H](CCCCN)C(=O)N[C@H](CC(C)C)C(=O)N[C@H](CC(C)C)C(=O)N[C@@H](CCCCN)C(=O)N[C@@H](CCCCN)C(=O)N[C@H](CC(C)C)C(N)=O`, for which the results for the MIC in series [1] and in series [3] were 25 µM (≈ 44 µg/mL) and 6.25 µM (≈ 11 µg/mL), respectively. For the same compound, the MHC entry in series [2] is “Non-toxic”.

Regarding `CCCCCCCCCCCC(=O)N[C@H](CC(C)C)C(=O)N[C@@H](Cc1cnc[nH]1)C(=O)N[C@@H](Cc1cnc[nH]1)C(=O)N[C@H](CC(C)C)C(=O)N[C@H](CC(C)C)C(=O)N[C@@H](Cc1cnc[nH]1)C(=O)N[C@@H](Cc1cnc[nH]1)C(=O)N[C@H](CC(C)C)C(=O)N[C@H](CC(C)C)C(=O)N[C@@H](Cc1cnc[nH]1)C(=O)N[C@@H](Cc1cnc[nH]1)C(=O)N[C@H](CC(C)C)C(N)=O` (Lauroyl-[dL]HH[dL][dL]HH[dL][dL]HH[dL]-NH2), the MIC in series [4] is 6.2 µM (≈ 10.5 µg/mL); in series [6] it was over 100 µM; in series [7], over 100 µM; in [8], over 100 µM. Also, the MHC result in series [5] is given as “Non-toxic”.

`CC(C)C[C@@H](N)C(=O)N[C@@H](CCCCN)C(=O)N[C@@H](CCCCN)C(=O)N[C@H](CC(C)C)C(=O)N[C@H](CC(C)C)C(=O)N[C@H](CC(C)C)C(=O)N[C@@H](CCCCN)C(=O)N[C@@H](CCCCN)C(=O)N[C@H](CC(C)C)C(=O)N[C@H](CC(C)C)C(=O)N[C@@H](CCCCN)C(=O)N[C@@H](CCCCN)C(=O)N[C@H](CC(C)C)C(N)=O`: the MIC in series [1] was over 50 µM; in series [3], 50 µM (≈ 78.9 µg/mL). In addition, the MHC result in series [2] is “Non-toxic”.

Turning to `NC[C@H]1O[C@@H](O[C@@H]2[C@@H](O[C@@H]3O[C@H](COC(=O)Nc4ccccc4)[C@@H](O[C@@H]4O[C@H](CN)[C@@H](O)[C@H](O)[C@H]4N)[C@H]3OC(=O)Nc3ccccc3)[C@@H](O)[C@H](N)C[C@@H]2N)[C@H](N)[C@@H](O)[C@@H]1O.O=C(O)C(F)(F)F`, the minimal inhibitory concentration (MIC) came to 0.5 µg/mL in [9] and 1 µg/mL in series [10].

The term HC50 denotes the concentration giving 50% haemolysis. Low values mean stronger haemolysis, high ones weaker haemolysis. With `CC[C@H](C)[C@H](NC(=O)CN)C(=O)NCC(=O)N[C@@H](CCCCN)C(=O)N[C@@H](Cc1ccccc1)C(=O)N[C@@H](CC(C(F)(F)F)C(F)(F)F)C(=O)N[C@@H](Cc1cnc[nH]1)C(=O)N[C@@H](C)C(=O)N[C@@H](C)C(=O)N[C@@H](CCCCN)C(=O)N[C@@H](CCCCN)C(=O)N[C@@H](Cc1ccccc1)C(=O)N[C@@H](C)C(=O)N[C@@H](CCCCN)C(=O)N[C@@H](C)C(=O)N[C@@H](Cc1ccccc1)C(=O)N[C@H](C(=O)N[C@@H](C)C(=O)N[C@@H](CCC(=O)O)C(=O)N[C@@H](CC(C(F)(F)F)C(F)(F)F)C(=O)N[C@@H](CCSC)C(=O)N[C@@H](CC(N)=O)C(=O)N[C@@H](CO)C(N)=O)C(C)C` (H-GIGKF[Leu(5,5,5,5',5',5'-F6)]HAAKKFAKAFVAE[Leu(5,5,5,5',5',5'-F6)]MNS-NH2), the MIC in [1] and in [11] was 0.92 µM (≈ 2.48 µg/mL) each time. Besides, the HC50 in [12] came out at 7.4 µM.
